What all share (type): binding
Test [1] has as its target T1, CYP125 (Rv3545c, CYP125A1) (Mycobacterium tuberculosis, UniProt P9WPP1).
T1 sequence (P9WPP1 1-433): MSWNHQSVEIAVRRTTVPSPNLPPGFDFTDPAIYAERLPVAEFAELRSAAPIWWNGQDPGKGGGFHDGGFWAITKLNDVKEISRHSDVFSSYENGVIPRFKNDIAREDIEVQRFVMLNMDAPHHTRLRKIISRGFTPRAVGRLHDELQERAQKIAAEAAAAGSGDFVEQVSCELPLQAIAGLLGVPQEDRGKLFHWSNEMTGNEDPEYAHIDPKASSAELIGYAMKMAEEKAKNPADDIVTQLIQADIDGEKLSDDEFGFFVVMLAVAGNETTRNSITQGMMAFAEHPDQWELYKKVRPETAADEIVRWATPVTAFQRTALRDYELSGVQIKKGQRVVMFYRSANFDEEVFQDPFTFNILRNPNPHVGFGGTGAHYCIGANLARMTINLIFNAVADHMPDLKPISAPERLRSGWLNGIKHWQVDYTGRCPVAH
Nature of the test: biochemical.

Test [2] deals with CYP142 (Rv3518c, CYP142A1) (Mycobacterium tuberculosis, UniProt P9WPL5). In words: biochemical.
CYP142 (Rv3518c, CYP142A1), sequence (P9WPL5 whole entry): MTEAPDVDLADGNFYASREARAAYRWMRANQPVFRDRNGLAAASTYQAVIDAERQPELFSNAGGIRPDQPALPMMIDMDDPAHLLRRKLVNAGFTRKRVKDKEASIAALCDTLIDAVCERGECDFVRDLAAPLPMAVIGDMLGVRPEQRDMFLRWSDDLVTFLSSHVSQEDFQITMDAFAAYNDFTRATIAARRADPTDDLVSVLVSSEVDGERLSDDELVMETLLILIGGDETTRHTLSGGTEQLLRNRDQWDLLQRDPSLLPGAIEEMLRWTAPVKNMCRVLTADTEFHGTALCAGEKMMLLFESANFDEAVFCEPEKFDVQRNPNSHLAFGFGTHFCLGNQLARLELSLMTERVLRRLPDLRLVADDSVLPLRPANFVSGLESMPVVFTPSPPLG
For test [3], the target named is T2, CYP124 (Rv2266, CYP124A1) (Mycobacterium tuberculosis, UniProt P9WPP3).
T2 sequence (P9WPP3 1-428): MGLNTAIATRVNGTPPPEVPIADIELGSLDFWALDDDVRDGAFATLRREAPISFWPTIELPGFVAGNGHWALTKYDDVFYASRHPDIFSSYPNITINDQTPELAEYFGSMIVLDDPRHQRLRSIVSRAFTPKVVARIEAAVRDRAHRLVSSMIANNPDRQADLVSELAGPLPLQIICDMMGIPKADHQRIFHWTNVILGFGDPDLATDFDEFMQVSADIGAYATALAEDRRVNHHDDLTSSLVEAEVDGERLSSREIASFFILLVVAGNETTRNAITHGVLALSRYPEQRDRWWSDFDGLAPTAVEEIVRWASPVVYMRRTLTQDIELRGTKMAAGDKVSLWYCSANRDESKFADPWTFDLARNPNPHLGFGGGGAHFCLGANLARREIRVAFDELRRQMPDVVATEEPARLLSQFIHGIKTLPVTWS
In words: […] Å co-crystal structure; […]; LC-MS turnover.

Usually Kd stands for a measure of binding affinity in units of concentration. Read a low Kd as a tighter complex.

With `CC(C)=CCC/C(C)=C\CNCCNC1C2CC3CC(C2)CC1C3` (stereo not drawn) [SQ109], the Kd was 41 ± 3 µM in test [1], 52 ± 11 µM in test [2] and 3.4 ± 0.3 µM in test [3].
